ChEMBL document CHEMBL1201862, “PubChem BioAssay data set” (2004)
The source made the active and inactive calls.

Columns and labels:
cells [1] = assay type: functional, cell-based
[2] = biological target: T1, Trace amine-associated receptor 1 (Homo sapiens, UniProt Q96RJ0); experiment: Fluorescence-based cell-based high throughput dose response assay to identify agonists of the human trace amine associated receptor 1 (TAAR1).; assay type: functional
T1 sequence (Q96RJ0 whole entry): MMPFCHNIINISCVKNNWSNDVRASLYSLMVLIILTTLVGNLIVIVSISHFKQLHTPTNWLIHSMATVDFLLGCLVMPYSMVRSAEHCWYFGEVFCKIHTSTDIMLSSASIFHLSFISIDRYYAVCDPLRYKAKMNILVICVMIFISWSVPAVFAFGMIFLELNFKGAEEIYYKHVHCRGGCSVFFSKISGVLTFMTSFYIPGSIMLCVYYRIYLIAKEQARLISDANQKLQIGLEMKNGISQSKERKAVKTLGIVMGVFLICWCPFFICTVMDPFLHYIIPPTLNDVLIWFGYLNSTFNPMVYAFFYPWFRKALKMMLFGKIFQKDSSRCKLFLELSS

[3] = biological target: T1, Trace amine-associated receptor 1; experiment: Counterscreen for agonists of the human trace amine associated receptor 1 (hTAAR1): Fluorescence-based cell-based high throughput dose response assay to identify hTAAR1 agonist that also desensitize TAAR1 receptor response.; assay type: functional
cells [4] = assay type: functional, cell-based; remark: listed apart in the source
[5] = biological target: RNA-editing ligase 1, mitochondrial (Trypanosoma brucei brucei, UniProt P86926); experiment: inhibition of trypanosome RNA editing ligase – biochemical, fluorescence, Trypanosoma brucei, dose response (AID 1117295); assay type: functional
Chain of RNA-editing ligase 1, mitochondrial (P86926 whole entry, the tested form may be a part): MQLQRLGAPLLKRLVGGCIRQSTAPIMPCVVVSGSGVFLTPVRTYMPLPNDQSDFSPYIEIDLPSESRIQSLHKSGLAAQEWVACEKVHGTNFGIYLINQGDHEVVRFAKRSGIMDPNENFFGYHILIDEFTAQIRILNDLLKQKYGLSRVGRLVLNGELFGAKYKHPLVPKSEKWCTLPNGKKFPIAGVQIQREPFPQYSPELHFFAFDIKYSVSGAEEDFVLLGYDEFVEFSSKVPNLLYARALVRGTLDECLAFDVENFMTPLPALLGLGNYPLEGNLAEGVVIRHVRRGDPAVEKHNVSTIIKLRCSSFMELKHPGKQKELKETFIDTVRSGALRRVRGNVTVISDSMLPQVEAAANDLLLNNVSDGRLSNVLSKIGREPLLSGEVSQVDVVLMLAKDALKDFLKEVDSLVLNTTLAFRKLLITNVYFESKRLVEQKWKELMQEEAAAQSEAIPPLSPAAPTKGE

[6] = biological target: T2, RNA-binding protein pos-1 (Caenorhabditis elegans, UniProt G5EF15); experiment: disruptors of C. elegans POS-1 RNA interaction – biochemical, fluorescence polarization, dose response (AID 1964);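 further: purified POS-1 fused to maltose binding protein made in E. coli; potency of compounds blocking POS-1 binding to fluorescent RNA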
T2 sequence (G5EF15 whole entry): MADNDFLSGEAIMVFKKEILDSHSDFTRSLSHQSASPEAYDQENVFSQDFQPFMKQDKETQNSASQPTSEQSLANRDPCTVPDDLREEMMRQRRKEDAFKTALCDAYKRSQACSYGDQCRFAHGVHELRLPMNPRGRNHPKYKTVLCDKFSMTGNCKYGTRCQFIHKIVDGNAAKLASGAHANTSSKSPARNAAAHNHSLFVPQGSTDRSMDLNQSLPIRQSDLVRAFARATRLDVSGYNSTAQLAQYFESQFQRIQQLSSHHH

[7] = biological target: T3, Zinc finger protein mex-5 (Caenorhabditis elegans, UniProt Q9XUB2); experiment: potency of MEX-5 RNA-binding blockers – biochemical, C. elegans, fluorescence polarization, dose response (AID 1960)
T3 sequence (Q9XUB2 whole entry): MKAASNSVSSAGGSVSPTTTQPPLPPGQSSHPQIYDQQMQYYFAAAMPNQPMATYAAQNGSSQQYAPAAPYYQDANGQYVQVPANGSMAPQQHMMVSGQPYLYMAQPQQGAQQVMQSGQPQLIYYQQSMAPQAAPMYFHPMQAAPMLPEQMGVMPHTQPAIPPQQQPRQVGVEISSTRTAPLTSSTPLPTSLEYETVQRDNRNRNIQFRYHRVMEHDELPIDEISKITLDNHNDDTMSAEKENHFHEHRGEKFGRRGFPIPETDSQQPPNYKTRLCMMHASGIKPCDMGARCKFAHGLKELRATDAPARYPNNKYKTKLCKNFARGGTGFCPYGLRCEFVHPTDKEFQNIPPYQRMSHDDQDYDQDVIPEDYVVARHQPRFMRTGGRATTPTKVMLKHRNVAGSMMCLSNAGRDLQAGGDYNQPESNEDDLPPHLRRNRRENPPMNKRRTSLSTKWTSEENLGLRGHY

Nonstructural protein 1 = Nonstructural protein 1 (Influenza A virus, UniProt Q194T2); assay type: functional, Influenza A virus (A/California/07/2009(H1N1))
Chain of Nonstructural protein 1 (Q194T2 whole entry): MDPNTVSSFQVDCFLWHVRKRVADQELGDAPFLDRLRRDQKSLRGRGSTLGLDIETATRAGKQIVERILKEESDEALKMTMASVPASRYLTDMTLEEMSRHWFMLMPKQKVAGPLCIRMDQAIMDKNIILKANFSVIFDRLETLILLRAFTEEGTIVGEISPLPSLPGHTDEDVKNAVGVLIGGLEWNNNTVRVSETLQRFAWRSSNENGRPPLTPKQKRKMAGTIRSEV

[8] = viability loss in HeLa cells – cytotoxicity control for MgcRacGAP inhibitor project, dose response (AID 624300); assay type: functional
[9] = biological target: T4, Rac GTPase-activating protein 1 (Homo sapiens, UniProt Q9H0H5); experiment: blockers of MgcRacGAP-driven Rac1 GTP hydrolysis – biochemical, ADP Hunter fluorescence, primary and confirmatory, confirmation (AID 624330); assay type: functional
T4 sequence (Q9H0H5 whole entry): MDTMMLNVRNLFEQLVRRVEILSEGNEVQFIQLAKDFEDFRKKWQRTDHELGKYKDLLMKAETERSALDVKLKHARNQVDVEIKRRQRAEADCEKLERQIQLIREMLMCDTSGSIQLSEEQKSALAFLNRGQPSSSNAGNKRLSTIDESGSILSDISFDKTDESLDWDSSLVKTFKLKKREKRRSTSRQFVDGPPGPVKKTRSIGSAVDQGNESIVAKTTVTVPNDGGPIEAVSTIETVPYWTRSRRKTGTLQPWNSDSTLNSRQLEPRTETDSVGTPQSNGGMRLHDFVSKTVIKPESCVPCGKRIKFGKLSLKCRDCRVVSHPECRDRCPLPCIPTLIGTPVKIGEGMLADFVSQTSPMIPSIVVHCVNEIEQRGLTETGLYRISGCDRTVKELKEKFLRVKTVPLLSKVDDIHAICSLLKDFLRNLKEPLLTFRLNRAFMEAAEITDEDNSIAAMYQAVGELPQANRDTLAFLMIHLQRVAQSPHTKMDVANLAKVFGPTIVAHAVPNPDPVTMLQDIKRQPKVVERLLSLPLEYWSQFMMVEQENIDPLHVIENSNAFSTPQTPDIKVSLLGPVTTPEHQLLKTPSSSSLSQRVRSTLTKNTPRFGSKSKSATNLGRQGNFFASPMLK

[10] = biological target: T5, DNA repair protein RAD52 homolog (Homo sapiens, UniProt P43351); assay type: functional, biochemical
T5 sequence (P43351 whole entry): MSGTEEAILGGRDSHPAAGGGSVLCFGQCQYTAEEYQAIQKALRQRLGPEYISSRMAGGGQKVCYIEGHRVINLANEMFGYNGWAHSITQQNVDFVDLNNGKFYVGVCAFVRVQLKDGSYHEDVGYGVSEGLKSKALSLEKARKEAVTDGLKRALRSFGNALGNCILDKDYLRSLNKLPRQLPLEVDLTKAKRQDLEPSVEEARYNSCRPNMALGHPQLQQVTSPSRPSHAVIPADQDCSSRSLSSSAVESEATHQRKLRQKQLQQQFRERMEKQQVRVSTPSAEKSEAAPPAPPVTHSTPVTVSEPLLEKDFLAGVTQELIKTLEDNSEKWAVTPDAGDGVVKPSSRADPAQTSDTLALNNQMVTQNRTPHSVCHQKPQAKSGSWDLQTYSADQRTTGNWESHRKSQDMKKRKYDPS

Protein Tat = Protein Tat (Human immunodeficiency virus type 1 group M subtype B (isolate HXB2)(HIV-1), UniProt P04608); assay type: functional;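 further: tat binding to TAR RNA read out by fluorescence polarization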
Chain of Protein Tat (P04608 whole entry): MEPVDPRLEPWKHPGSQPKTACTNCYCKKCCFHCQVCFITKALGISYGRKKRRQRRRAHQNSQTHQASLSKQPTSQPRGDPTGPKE

Kallikrein-7 = Kallikrein-7 (Homo sapiens, UniProt P49862); experiment: Fluorescence Intensity-based biochemical primary high throughput dose response assay to identify activators of kallikrein-7 (K7) zymogen.
Chain of Kallikrein-7 (P49862 whole entry): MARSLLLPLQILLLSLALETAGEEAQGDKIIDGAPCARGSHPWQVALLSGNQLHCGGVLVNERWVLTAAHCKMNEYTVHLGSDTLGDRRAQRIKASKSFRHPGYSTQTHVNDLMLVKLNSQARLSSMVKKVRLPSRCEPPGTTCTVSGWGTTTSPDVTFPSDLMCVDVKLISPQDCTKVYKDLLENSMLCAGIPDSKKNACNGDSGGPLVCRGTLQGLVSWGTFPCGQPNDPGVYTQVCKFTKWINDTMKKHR

Albumin = Albumin (Bos taurus, UniProt P02769); experiment: Counterscreen for inhibitors of T-cell receptor (TCR)-CD3 interaction: Fluorescence-based biochemical high throughput dose response assay to identify inhibitors of T-cell receptor (TCR)-CD3 interaction using a TAMRA-labeled BSA probe.; assay type: functional
Chain of Albumin (P02769 whole entry): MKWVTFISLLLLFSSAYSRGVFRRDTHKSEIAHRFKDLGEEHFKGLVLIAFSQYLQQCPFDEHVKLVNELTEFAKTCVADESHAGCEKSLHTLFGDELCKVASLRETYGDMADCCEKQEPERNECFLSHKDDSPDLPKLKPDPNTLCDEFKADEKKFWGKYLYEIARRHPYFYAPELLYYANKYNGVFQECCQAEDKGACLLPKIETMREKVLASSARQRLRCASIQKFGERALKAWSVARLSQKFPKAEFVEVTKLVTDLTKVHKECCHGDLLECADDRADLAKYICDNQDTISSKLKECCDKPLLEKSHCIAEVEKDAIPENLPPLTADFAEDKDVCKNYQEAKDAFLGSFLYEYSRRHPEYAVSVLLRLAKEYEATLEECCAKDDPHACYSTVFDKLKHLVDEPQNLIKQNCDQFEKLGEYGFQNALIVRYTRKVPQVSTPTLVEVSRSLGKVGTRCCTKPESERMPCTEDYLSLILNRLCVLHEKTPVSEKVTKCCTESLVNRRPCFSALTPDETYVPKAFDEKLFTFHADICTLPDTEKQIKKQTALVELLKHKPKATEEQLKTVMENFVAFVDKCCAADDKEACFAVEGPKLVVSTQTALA

[11] = Luminescence Cell-Based Dose Retest to Confirm Inhibitors of Cancer Stem Cells. [Related pubchem assays (depositor defined):AID2717, AID2721]; assay type: functional; settings: Homo sapiens
[12] = rescue of ΔF508 CFTR function, airway epithelium – human bronchial epithelial cells, plate reader, cherry-pick, two tests, dose response (AID 743267); assay type: functional, cell-based

With `OC(COC(c1ccc(F)cc1)c1ccc(F)cc1)CN1CCCC(C(F)(F)F)C1` (configuration not stated) the IC50 (cells [1]) was > 29.9 µM (inactive), the EC50 [2] was 2.52 µM (active) and the IC50 [3] was 8.46 µM (active). The EC50 (cells [4]) was > 29.9 µM (inactive).

In the case of `NS(=O)(=O)c1ccc(CCNC(=O)C2CCC(CNS(=O)(=O)c3ccc(Br)s3)CC2)cc1` (configuration not stated), the IC50 (cells [1]) was > 29.9 µM (inactive), the EC50 [2] was > 29.9 µM (inactive) and the IC50 [3] was 1.16 µM (active). The EC50 (cells [4]) was > 29.9 µM (inactive).

For `Cc1cc(C)c(OCCCNCc2ccccc2)c(Br)c1`, the IC50 [5] was > 96.6 µM (inactive).

For `Cn1c(N=Nc2ccc(N3CCOCC3)cc2)[n+](C)c2ccccc21`, the EC50 [6] was > 300 µM (not active), the EC50 [7] was 219 µM (active) and the IC50 (Nonstructural protein 1) was 8.01 µM (active). For the same compound, the CC50 [8] was 100 µM (active), the IC50 [9] was 26 µM (active) and the AC50 [10] was 2.36 µM (active). The IC50 [5] was 34 µM (inactive).

With `CC(C)(Oc1ccc(Cl)cc1)C(=O)NCc1ccco1` the IC50 (Protein Tat) was > 100 µM (active).

In the case of `CN1C(=O)c2ccccc2N(C)C1c1ccc2c(c1)OCO2` (configuration not stated), the EC50 (Kallikrein-7) was > 69.5 µM (inactive).

With `O=C(CCCN1C(=O)/C(=C/c2cccs2)SC1=S)NNC(=O)c1ccccc1O` the IC50 (Albumin) was > 94.1 µM (inactive).

With `CN(C)CCn1c2ccccc2c2nc3ccc([N+](=O)[O-])cc3cc21` the AC50 [11] was 2.35 µM (active) and the AC50 [12] was 55.7 µM (active).

With `NS(=O)(=O)c1ccc(S(=O)(=O)N(CCc2ccccc2)Cc2ccccn2)cc1` the AC50 [12] was < 0.0235 µM (active).
